Experimental findings from patent EP2342182B1 (H. Lundbeck A/S, priority 2008, dated 2010) are described below.

The nature of data set [1]: Free fraction in plasma (equilibrium dialysis). It is filed as in vitro ADME. As to conditions: human EDTA plasma, pH 7.4 buffer, 37 °C. How it is done: Example 14 Free fraction in plasma
Free fraction in human plasma has been determined by equilibrium dialysis between human EDTA plasma (Bioreclamation) and 0.1 M NaH2PO4 buffer adjusted to pH 7.4. The experiment was performed in a 96 well dialysis plate (HTD96b, htdialysis). Plasma was frozen at -80 °C immediately after purchasing. Membranes (HTD 96a/b Dialysis Membrane Strips, MWCO 12-14 K, htdialysis) were soaked for one hour in pure PBS and kept in PBS/EtOH 80:20 (v/v) in a closed bottle at 5 °C until use.
Plasma was thawed in cold water and centrifuged 5 min at 3000 rpm before use to move potential clots. The plasma supernatant was transferred to a new tube. Test compounds were diluted to 0.2 mM in DMSO. Plasma was spiked 1:100 with test compound (final concentration 2 µM).
The dialysis plate was assembled with membranes according to the instructions whereupon 150 µL phosphate buffer was loaded to the lower side of the wells immediately after assembling and spiked plasma was loaded to the upper side of the wells. The plate was sealed with sealing tape and incubated at 37 °C with gently shaking in 5 hours.
After 5 hours incubation the plate was removed from the incubator. The sealing tape was carefully removed and 70 µL from the buffer wells ("lower" side) were transferred to 96 well plates for analysis.
Samples were analysed by LC-MS-MS on a Sciex API 4000 (Applied Biosystems). […]
In general terms: In equilibrium dialysis free small molecules cross a membrane that holds back macromolecules.

The target in data set [2] is T1, human NK3 receptor (Homo sapiens, UniProt P29371).
T1 construct: expressed in transfected cells; membranes prepared from them
T1 sequence (P29371 1-465): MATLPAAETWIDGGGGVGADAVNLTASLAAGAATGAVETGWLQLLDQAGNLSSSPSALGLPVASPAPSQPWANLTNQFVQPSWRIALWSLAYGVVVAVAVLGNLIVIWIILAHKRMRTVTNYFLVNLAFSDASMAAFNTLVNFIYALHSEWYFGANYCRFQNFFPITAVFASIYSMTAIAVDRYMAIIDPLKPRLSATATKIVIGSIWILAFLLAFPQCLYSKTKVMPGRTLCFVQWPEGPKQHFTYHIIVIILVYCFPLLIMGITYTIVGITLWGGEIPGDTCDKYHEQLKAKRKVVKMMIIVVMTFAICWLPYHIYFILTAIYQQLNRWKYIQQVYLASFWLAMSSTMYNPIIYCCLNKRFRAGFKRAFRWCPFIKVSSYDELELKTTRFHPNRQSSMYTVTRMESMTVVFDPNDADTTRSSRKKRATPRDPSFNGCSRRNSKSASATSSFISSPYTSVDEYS
Put plainly: NK3 receptor binding assay (SPA-based competition binding with 125I-NKB). As to conditions: read-out: Affinity (Ki/nM). How it is done:
Example 12 NK3 receptor binding assay
(§1) Membranepreparation: BHK cells stably expressing the human NK3 receptor were seeded in harvesting plates in Dulbeccos MEM containing GlutaMax (862 mg/l), 1mM sodium pyruvate, 10% fetal calf serum, 1% Pen/Strep, 1 mg/ml G418 and were grown at 34 °C in a humidified atmosphere containing 10% CO2. To increase receptor expression, 10 µM trichotatin A was added to the media 24 hours before harvest of the cells at a confluency of app 90%. Prior to the harvesting, the cells were washed twice with PBS without Mg^2+ og Ca^2+ and subsequently scrapped of in 10 ml PBS pr harvesting plate. The cells suspension were centrifuged at 1500xG in three minutes before resuspension in 15 mM Tris-HCl pH 7,5 buffer containing 2 mM MgCl2; 0,3 mM EDTA and 1 mM EGTA (buffer A). The cell suspention was homogenised and subsequently centrifuged at 40000xG in 30 minutes. The membrane-pellet was resuspended in buffer A containing 250 mM sucrose, alliquoted and stored at ― 80 °C.
Affinity assay description: The assay was performed as a SPA-based competition-binding assay in a 50 mM Tris pH 7.4 assay buffer containing 120 mM NaCl, 3 mM MnCl2, 40 µg/ml bacitracin, 2 µg/ml Chymostatin, 1 µg/ml Phosphoramidon and 4 µg/ml Leupeptin. […] The assay plate was subsequently under agitation incubated for 90 min at RT. The plate was centrifugated 10 minutes at 500xG and counted in a topcounter 5 minuttes pr well.
The total binding, which comprised less than 5 % of added radioligand, was defined using assay buffer whereas the non-specific binding was defined in the presence of 1 µM osanetant. The non-specific binding constituted app 5 % of the total binding.

Data set [3] addresses T1, human NK3 receptor. Put plainly: NK3 receptor efficacy and potency assay (FLIPR Calcium 4). The data set is classed as cell-based. As to conditions: read-out: Potency (cIC50/nM). The procedure:
Example 13 NK3 receptor efficacy and potency assay
BHK cells stably expressing the human NK3 receptor were seeded in 100 µl media in black walled clear-base 96-wells plates (Costar) aiming at a confluency of 95-100% at the day of assay. The assay was performed according to the FLIPR Calcium 4 Assay kit (Molecular Devices). At the day of the assay, the media was removed and the cells were washed once with the HBSS buffer (Hanks BSS buffer, pH 7,4 containing 20 mM Hepes) before 100 µl of a solution of the calcium assay reagent dissolved in the HBSS buffer containing 2,5 mM probinicid was added to the cells. The plates were incubated for 60 min at 34°C, 10% CO2 before use in the FLIPR for examination of fluorescence.
For efficacy and potency evaluation of compounds, these were diluted in HBSS buffer prior to test. For test of agonist activity, 25 µl of the diluted compound solution was added and the plate was analyzed for 5 minutes in the FLIPR. For test of antagonist activity, the plate was incubated for another 45 minutes before addition of 25 µl of the EC85 concentration ofNKB (app. 4 nM) as described above. The plates were subsequently analyzed for 5 minutes before the assay was terminated. The maximal increase in fluorescence over background following each ligand addition was determined.

Data set [4] concerns the target T1, human NK3 receptor. Nature of the data set: NK3 receptor binding assay (SPA-based competition binding with 125I-NKB). The conditions noted are these: read-out: KD of 125I-NKB; three independent saturation assays, duplicate determinations. How it is done:
as §1, with “Example 12 NK3 receptor binding assay Membranepreparation:” for “Membranepreparation:”, “°C. Affinity assay description: The assay was performed as a SPA-based competition-binding assay in a 50 mM Tris pH 7.4 assay buffer containing 120 mM NaCl, 3 mM MnCl2, 40 µg/ml bacitracin, 2 µg/ml Chymostatin, 1 µg/ml Phosphoramidon and 4 µg/ml Leupeptin. […] The plate was centrifugated 10 minutes at 500xG and counted in a topcounter 5 minuttes pr well. […]” for “°C.”

Starred links: 1 amine or outer side, 2 acyl side, 3 side chain; linkers in the order of their positions; H or OH if unused. Non-standard residues stand in square brackets, D forms with d. Residues, ends and D or L forms follow the SMILES beside them. X1 = O=C([C@H](Cc1cnc(I)[nH]1)N[*:1])[*:2]
Throughout, for Affinity (Ki/nM): competition with app 0.02 nM 125I-NKB.

One may read the fraction unbound as free concentration divided by total concentration. Take `CCNn1c(C)c(C(=O)N[C@@H](CC)c2ccccc2)c2ccccc2c1=O` [Example 2a, 2-Ethylamino-3-methyl-1-oxo-1,2-dihydro-isoquinoline-4-carboxylic acid ((S)-1-phenylpropyl)-amide]: the fraction unbound at 5 h, 2 µM in data set [1] amounted to 0.162.

`CCNn1c(C)c(C(=O)N[C@@H](CC)c2ccccc2)c2cccc(Cl)c2c1=O` [Example 2h, 8-Chloro-2-ethylamino-3-methyl-1-oxo-1,2-dihydro-isoquinoline-4-carboxylic acid ((S)-1-phenyl-propyl)-amide]: on human NK3 receptor [2], the Ki was 31 nM. Moreover, on human NK3 receptor [3], the IC50 came to 36 nM. Moreover, the fraction unbound at 5 h, 2 µM in data set [1] was 0.062. Turning to `CCNn1c(C)c(C(=O)N[C@H](c2ccccc2)C2CC2)c2cccc(F)c2c1=O` [Example 2i, 2-Ethylamino-8-fluoro-3-methyl-1-oxo-1,2-dihydro-isoquinoline-4-carboxylic acid ((S)-cyclopropyl-phenyl-methyl)-amide], at human NK3 receptor [2], the Ki was determined as 27 nM. Moreover, the fraction unbound at 5 h, 2 µM in data set [1] was 0.134. In turn, `CCCNn1c(C)c(C(=O)N[C@H](c2ccccc2)C2CC2)c2cccc(F)c2c1=O` [Example 2k, 8-Fluoro-3-methyl-1-oxo-2-propylamino-1,2-dihydro-isoquinoline-4-corboxylic acid ((S)-cyclopropyl-phenyl-methyl)-amide] registered a fraction unbound at 5 h, 2 µM in data set [1] of 0.124.

`CCNn1c(C)c(C(=O)N[C@H](c2cccc(F)c2)C2CCC2)c2cccc(F)c2c1=O` [Example 2s, 2-Ethylamino-8-fluoro-3-methyl-1-oxo-1,2-dihydro-isoquinoline-4-carboxylic acid [(S)-cyclobutyl-(3-fluoro-phenyl)-methyl]-amide]: the Ki on human NK3 receptor [2] was found to be 4.7 nM. In data set [1], this molecule returned a fraction unbound at 5 h, 2 µM of 0.06. In the same order, the values of `CCNn1c(C)c(C(=O)N[C@@H](CC)c2ccccc2)c2cccc(F)c2c1=O` [Example 2t, 2-Ethylamino-8-fluoro-3-methyl-1-oxo-1,2-dihydro-isoquinoline-4-carboxylic acid ((S)-1-phenyl-propyl)-amide] are 43 nM and 0.146.

For `CCNn1c(C)c(C(=O)N[C@H](c2ccc(F)cc2)C2CC2)c2cccc(F)c2c1=O` [Example 2w, 2-Ethylamino-8-fluoro-3-methyl-1-oxo-1,2-dihydro-isoquinoline-4-carboxylic acid [(S)-cyclopropyl-(4-fluoro-phenyl)-methyl]-amide], at human NK3 receptor [2], the Ki came to 28 nM. This molecule had a fraction unbound at 5 h, 2 µM in data set [1] of 0.132. For `Cc1c(C(=O)N[C@H](c2cccc(F)c2)C2CC2)c2cccc(F)c2c(=O)n1[C@@H]1CCN(C)C1` [Example 7i, 8-Fluoro-3-methyl-2-((R)-1-methyl-pyrrolidin-3-yl)-1-oxo-1,2-dihydro-isoquinoline-4-carboxylic acid [(S)-cyclopropyl-(3-fluoro-phenyl)-methyl]-amide], the Ki at human NK3 receptor [2] was 90 nM. Moreover, the IC50 at human NK3 receptor [3] amounted to 660 nM. In the case of `CCCNn1c(C)c(C(=O)N[C@H](c2ccc(F)cc2)C2CCC2)c2cccc(F)c2c1=O` [Example 8c], the fraction unbound at 5 h, 2 µM in data set [1] was 0.046. As for `Cc1c(C(=O)N[C@H](c2cccc(F)c2)C2CCC2)c2cccc(F)c2c(=O)n1NCCCF` [Example 10a, 8-Fluoro-2-(3-fluoro-propylamino)-3-methyl-1-oxo-1,2-dihydro-isoqunoline-4-carboxylic acid [(S)-cyclobutyl-(3-fluoro-phenyl)-methyl]-amide], the fraction unbound at 5 h, 2 µM in data set [1] is 0.089.

In turn, `CC[C@H](NC(=O)c1c(O)c(-c2ccccc2)nc2ccccc12)c1ccccc1` [Talnetant, talnetant, reference compound] came in with a fraction unbound at 5 h, 2 µM in data set [1] of 0.006.

One may read the Kd as the equilibrium constant for the complex coming apart. `CSCC[C@H](NC(=O)[C@H](CC(C)C)NC(=O)CNC(=O)[C@@H](NC(=O)[C@H](Cc1ccccc1)NC(=O)[C@H](Cc1ccccc1)NC(=O)[C@H](CC(=O)O)NC(=O)[C@H](Cc1cnc(I)[nH]1)NC(=O)[C@H](CCSC)NC(=O)[C@@H](N)CC(=O)O)C(C)C)C(N)=O` [^125I-NKB] (H-DM[X1]DFFVGLM-NH2): on human NK3 receptor [4], the Kd worked out at 0.0007 µM.
